From US20250163088A1, “HALF-SANDWICH TRANSITION METAL COMPLEXES AND USES THEREOF” (DEBRECENI EGYETEM, priority 2021, published 2025)
Read-outs that look alike come from different tables or passages of the source.

Experiments:
[1] = system: A2780 human ovarian carcinoma cells; experiment: SRB proliferation assay (48 h) on A2780 cells; type: cell-based; settings: for cytostatic properties in the screen (long-term SRB and short-term MTT assays): A2780 cells, 100 μM-0.0017 μM
Protocol: The compounds were tested in an assay aiming to assess short term toxicity (methylthiazolyldiphenyl-tetrazolium bromide (MTT) reduction assay, 4 hours) and a long term cytostasis or cytotoxicity (sulphorhodamine B (SRB) proliferation assay, 48 hours) on A2780 human ovarian carcinoma cells.
(§1) SRB accumulation assay assesses protein content in a sample and was used to assess cell proliferation. SRB accumulation assay was performed similarly to (Fodor et al., 2016) as follows. Cells were seeded in 96-well plates. The next day cells were treated with the compounds for 48 hours in the concentrations indicated in a cell incubator. At the end of treatment cells were fixed with 10% trichloroacetic acid (TCA). Fixed cells were stained with SRB (0.4 m/V % dissolved in 1% acetic acid) for 60 minutes. Fixed cells were washed in 1% acetic acid 3 times; acetic acid was removed and cells were left to dry. Protein-bound SRB was released by adding 100 μl 10 mM Tris base. Plates were measured in a plate photometer (Thermo Scientific Multiscan GO spectrophotometer, Waltham, MA, USA) at 540 nm. On each plate wells were designed to contain untreated cells. In calculations the readings for these wells was considered as 1 and all readings were expressed relative to these values.
Statistical analysis was performed using 8.0.1 version of Graphpad Prism. Values were tested for normal distribution using the D'Agostino and Pearson normality test. When necessary, values were log normalized or were normalized using the Box-Cox normalization method (Box and Cox, 1964), as indicated in the figure captions.

[2] = system: human primary skin fibroblasts; experiment: SRB proliferation assay (48 h) on primary fibroblasts; type: cell-based; settings: for Fibroblast Hill slope / IC50: SRB 48 h, N/A = cannot be calculated/no effect; for IC50: read-out: Fibroblast IC50
Protocol: (§2) […]. All compounds were tested on two ovarian cancer cell lines (A2780 and ID8) and on human primary skin fibroblasts (non-transformed, primary cells) in MTT and SRB assays. MTT assays were performed 4 hours post-treatment and indicated rapid toxicity of the compounds, while SRB assays were performed 2 days post-treatment and represent long term cytostasis or toxicity.
as §1
(§3) Statistical analysis was performed using 8.0.1 version of Graphpad Prism. Values were tested for normal distribution using the D'Agostino and Pearson normality test. When necessary, values were log normalized or were normalized using the Box-Cox normalization method (Box and Cox, 1964), as indicated in the figure captions. Nonlinear regression was performed using the built-in “[Inhibitor] vs. response—Variable slope (four parameters), least square fit” utility of Graphpad that yielded IC50 and Hill slope values.

[3] = Solubility / precipitation in the test medium; type: physicochemical
[4] = system: cisplatin-resistant A2780 cell line; experiment: SRB proliferation assay (48 h) on cisplatin-resistant A2780 cells; type: cell-based, human
Protocol: In this experiment, 6×10^3 cisplatin-resistant A2780 cells were plated to 96 well plates. Cells were treated with the compounds in the concentrations indicated for either 4 hours for an MTT assay or for 48 hours for an SRB assay. Data is represented as average ±SD, from three biological replicates; individual assays were performed in duplicates. Values were normalized for vehicle treated cells, absorbance for vehicle treated cells equals to 1. Each compound was assessed individually. Normality was assessed using the Shapiro-Wilk test. […] Statistical significance was assessed using One-way ANOVA test comparing all points to the smallest concentration. Nonlinear regression was performed on the results of the SRB assay datasets.
Cisplatin resistant cells underwent selection (1 μM cisplatin) once a week for 3 days before plating for any assay.
as §1

ID8 ovarian cancer cells = experiment: SRB proliferation assay (48 h) on ID8 cells; type: cell-based; settings: SRB 48 h; for IC50: N/A = cannot be calculated/no effect
Protocol: as §2, §1, §3

[5] = SRB 48 h, nonlinear regression, N/A = cannot be calculated/no effect, read-out: A2780 IC50

## O=C(OC[C@H]1O[C@@H](c2nnc(-c3ccccn3)o2)[C@H](OC(=O)c2ccccc2)[C@@H](OC(=O)c2ccccc2)[C@@H]1OC(=O)c1ccccc1)c1ccccc1 [Complex L-4, 2-(2′,3′,4′,6′-Tetra-O-benzoyl-β-D-glucopyranosyl)-5-(pyridin-2-yl)-1,3,4-oxadiazole]
[1]; 48 h
  cytostatic effect in long-term SRB assays on A2780 and ID8 cells, in words: none of the corresponding ligands (L-2a, L-4, L-6, L-8) had cytostatic properties
[1]
  cytostatic properties in the screen (long-term SRB and short-term MTT assays): no biological activity
[2]
  effect on primary human fibroblasts (SRB), in words: no effect

## CCCCCCCC(=O)OC[C@H]1O[C@@H](n2cc(-c3ccccn3)nn2)[C@H](OC(=O)CCCCCCC)[C@@H](OC(=O)CCCCCCC)[C@@H]1OC(=O)CCCCCCC [L-C7, 1-(2′,3′,4′,6′-Tetra-O-octanoyl-β-D-glucopyranosyl)-4-(pyridin-2-yl)-1,2,3-triazole]
[3]
  solubility of the free ligand for testing: insoluble

## c1ccc(-n2cc(-c3ccccn3)nn2)cc1 [Complex L-13, 1-phenyl-4-(pyridine-2-yl)-1,2,3-triazole]
[1]; 48 h
  cytostatic activity on A2780 cells in SRB assays, in words: None of the free ligands, L-13 or L-14 had cytostatic activity

## N.N.[Cl][Pt][Cl] [cisplatin]
[1]; 48 h
  A2780 SRB Hill: 1.20
[1]; 48 h, read-out: A2780 SRB IC50
  IC50: 1210 nM
[1]; SRB 48 h, nonlinear regression
  A2780 Hill slope: 1.20
[1]; [5]
  IC50: 1210 nM
[1]; SRB assay, 48 h, read-out: IC50 value on (cisplatin-sensitive) A2780 cells
  IC50: 1210 nM
[4]; 48 h
  cisplatin resistant A2780 SRB Max. (maximal inhibition): 100%
[4]; SRB assay
  fold change of IC50, cisplatin resistant vs. cisplatin sensitive A2780: 13.6 fold
[4]; SRB assay, 48 h
  IC50: 16.5 µM
ID8 ovarian cancer cells
  ID8 Hill slope: 0.99
  IC50: 10.8 µM
[2]
  Fibroblast Hill slope: 1.53
  IC50: 11.9 µM

## O=C(O[C@@H]1[C@@H](OC(=O)c2ccccc2)[C@H](c2nnc(-c3ccccn3)o2)OC[C@H]1OC(=O)c1ccccc1)c1ccccc1 [Complex L-6, 2-(2′,3′,4′-Tri-O-benzoyl-β-D-xylopyranosyl)-5-(pyridin-2-yl)-1,3,4-oxadiazole]
[1]; 48 h
  cytostatic effect in long-term SRB assays on A2780 and ID8 cells, in words: none of the corresponding ligands (L-2a, L-4, L-6, L-8) had cytostatic properties
[1]
  cytostatic properties in the screen (long-term SRB and short-term MTT assays): no biological activity
[3]
  solubility of the free ligand for testing: insoluble
[2]
  effect on primary human fibroblasts (SRB), in words: no effect

## O=C(OC[C@H]1O[C@@H](n2cc(-c3ccccn3)nn2)[C@H](OC(=O)c2ccccc2)[C@@H](OC(=O)c2ccccc2)[C@@H]1OC(=O)c1ccccc1)c1ccccc1 [Complex L-2a, 1-(2′,3′,4′,6′-Tetra-O-benzoyl-β-D-glucopyranosyl)-4-(pyridin-2-yl)-1,2,3-triazole]
[1]; 48 h
  cytostatic effect in long-term SRB assays on A2780 and ID8 cells, in words: none of the corresponding ligands (L-2a, L-4, L-6, L-8) had cytostatic properties
[1]
  cytostatic properties in the screen (long-term SRB and short-term MTT assays): no biological activity
[2]
  effect on primary human fibroblasts (SRB), in words: no effect

## O=C1[O][Pt]2([NH][C@@H]3CCCC[C@H]3[NH]2)[O]C1=O [oxaliplatin]
[1]; SRB 48 h, nonlinear regression
  A2780 Hill slope: 1.27
[1]; [5]
  IC50: 120 nM
ID8 ovarian cancer cells
  ID8 Hill slope: 1.58
  IC50: 4.59 µM
[2]; 48 h
  effect on primary human fibroblasts (SRB), in words: no effect
[2]
  Fibroblast Hill slope: 0.37
  IC50: 0.83 µM

## CC(=O)OC[C@H]1O[C@@H](c2nnc(-c3ccccn3)o2)[C@H](OC(C)=O)[C@@H](OC(C)=O)[C@@H]1OC(C)=O [Complex L-5, 2-(2′,3′,4′,6′-Tetra-O-acetyl-β-D-glucopyranosyl)-5-(pyridin-2-yl)-1,3,4-oxadiazole]
[1]; 48 h
  A2780 SRB Max. (maximal inhibition): 28.5%

## c1ccc(-c2nnc(-c3ccccn3)o2)cc1 [Complex L-14, 2-phenyl-5-(pyridine-2-yl)-1,3,4-oxadiazole]
[1]; 48 h
  cytostatic activity on A2780 cells in SRB assays, in words: None of the free ligands, L-13 or L-14 had cytostatic activity

## 2-(2′,3′,4′,6′-Tetra-O-benzoyl-β-D-glucopyranosyl)-5-(pyridin-2-yl)-1,3,4-oxadiazole [Complex L-4]
[1]; 48 h
  A2780 SRB Max. (maximal inhibition): 26.9%

## [NH2][Pt]1([NH2])[O]C(=O)C2(CCC2)C(=O)[O]1 [carboplatin]
[2]; 48 h
  effect on primary human fibroblasts (SRB), in words: no effect

## O=C(OC[C@H]1O[C@@H](n2cc(-c3ccc4ccccc4n3)nn2)[C@H](OC(=O)c2ccccc2)[C@@H](OC(=O)c2ccccc2)[C@@H]1OC(=O)c1ccccc1)c1ccccc1 [Complex L-2b, 1-(2′,3′,4′,6′-Tetra-O-benzoyl-β-D-glucopyranosyl)-4-(quinolin-2-yl)-1,2,3-triazole]
[1]; 48 h
  cytostatic effect in long-term SRB assays on A2780 and ID8 cells, in words: only little cytostatic activity

## CNCc1ccc(-c2[nH]c3cc(F)cc4c3c2CCNC4=O)cc1 [Rucaparib, rucaparib]
[1]; 3 μM, SRB 48 h
  cell proliferation, rucaparib alone: reduced cell proliferation

## O=C(OC[C@H]1O[C@@H](c2nnc(-c3ccccn3)o2)[C@H](OC(=O)c2ccccc2)[C@@H](OC(=O)c2ccccc2)[C@H]1OC(=O)c1ccccc1)c1ccccc1 [Complex L-8, 2-(2′,3′,4′,6′-Tetra-O-benzoyl-β-D-galactopyranosyl)-5-(pyridin-2-yl)-1,3,4-oxadiazole]
[1]; 48 h
  cytostatic effect in long-term SRB assays on A2780 and ID8 cells, in words: none of the corresponding ligands (L-2a, L-4, L-6, L-8) had cytostatic properties
[1]
  cytostatic properties in the screen (long-term SRB and short-term MTT assays): no biological activity
[2]
  effect on primary human fibroblasts (SRB), in words: no effect
